Data reported in patent US8299021B2, “Macrocyclic inhibitors of hepatitis C virus replication” (InterMune, Inc., priority 2005, dated 2012).
Like-named read-outs stand apart in the source and are kept apart here.

Tests used:
[1] = test system: HCV sub-genomic replicon GS4.3 (HuH-7 hepatoma cells); assay: Quantitation by ELISA of neomycin phosphotransferase II (NPTII) in the HCV sub-genomic replicon, GS4.3; type: cell-based
Excerpt: Quantitation by ELISA of the Selectable Marker Protein, Neomycin Phosphotransferase II (NPTII) in the HCV Sub-Genomic Replicon, GS4.3
The HCV sub-genomic replicon (1377/NS3-3′, accession No. AJ242652), stably maintained in HuH-7 hepatoma cells, was created by Lohmann et al. Science 285: 110-113 (1999). The replicon-containing cell culture, designated GS4.3, was obtained from Dr. Christoph Seeger of the Institute for Cancer Research, Fox Chase Cancer Center, Philadelphia, Pa.
GS4.3 cells were maintained at 37° C., 5% CO2, in DMEM (Gibco 11965-092) supplemented with L-glutamine 200 mM (100×) (Gibco25030-081), non-essential amino acids (NEAA)(Biowhittaker 13-114E), heat-inactivated (HI) Fetal Bovine Serum(FBS)(Hyclone SH3007.03) and […] geneticin (G418)(Gibco 10131-035). Cells were sub-divided 1:3 or 4 every 2-3 days.
24 h prior to the assay, GS4.3 cells were collected, counted, and plated in 96-well plates (Costar 3585) at 7500 cells/well in 100 μl standard maintenance medium (above) and incubated in the conditions above. To initiate the assay, culture medium was removed, cells were washed once with PBS (Gibco 10010-023) and 90 μl Assay Medium (DMEM, L-glutamine, NEAA, 10% HI FBS, no G418) was added. Inhibitors were made as a 10× stock in Assay Medium, (3-fold dilutions from 10 μM to […] final concentration, final DMSO concentration 1%), 10 μl were added to duplicate wells, plates were rocked to mix, and incubated as above for 72 h.
An NPTII Elisa kit was obtained from AGDIA, Inc. (Compound direct ELISA test system for Neomycin Phosphotransferase II, PSP 73000/4800). Manufacturer's instructions were followed, with some modifications. 10×PEB-1 lysis buffer was made up to include 500 μM PMSF (Sigma P7626, 50 mM stock in isopropanol). After 72 h incubation, cells were washed once with PBS and 150 μlPEB-1 with PMSF was added per well. Plates were agitated vigorously for 15 minutes, room temperature, then frozen at −70° C. Plates were thawed, lysates were mixed thoroughly, and 100 μl were applied to an NPTII Elisa plate. A standard curve was made. Lysate from DMSO-treated control cells was pooled, serially diluted with PEB-1 with PMSF, and applied to duplicate wells of the ELISA plate, in a range of initial lysate amount of 150 ul-2.5 ul. In addition, 100 μl buffer alone was applied in duplicate as a blank. Plates were sealed and gently agitated at room temperature for 2 h. Following capture incubation, the plates were washed 5×300 μlwith PBS-T (0.5% Tween-20, PBS-T was supplied in the ELISA kit). For detection, a 1× dilution of enzyme conjugate diluent MRS-2 (5×) was made in PBS-T, into which 1:100 dilutions of enzyme conjugates A and B were added, as per instructions. Plates were resealed, and incubated with agitation, covered, room temperature, for 2 h. The washing was then repeated and 100 μlof room temperature TMB substrate was added. After approximately 30 minutes incubation (room temperature, agitation, covered), the reaction was stopped with 50 μl 3M sulfuric acid. Plates were read at 450 nm on a Molecular Devices Versamax plate reader.
Inhibitor effect was expressed as a percentage of DMSO-treated control signal, and inhibition curves were calculated using a 4-parameter equation: y=A+4B-A)/(1+((C/x)^13))), where C is half-maximal activity or EC50.

[2] = target: T1, NS3-NS4 protease (full-length NS3/NS4A-2) (Hepatitis C virus genotype 1a, UniProt P27958); assay: NS3-NS4 protease assay / NS3 inhibition assay (RETS1 substrate, fluorescence kinetic read); type: biochemical; conditions: read-out: NS3-NS4 IC50
T1 construct: Recombinant E. coli or Baculovirus full-length NS3 was diluted to 3.33 μM with assay buffer; made in house; host or cells: E. coli or baculovirus (insect cells)
T1 sequence (P27958 1027-1657): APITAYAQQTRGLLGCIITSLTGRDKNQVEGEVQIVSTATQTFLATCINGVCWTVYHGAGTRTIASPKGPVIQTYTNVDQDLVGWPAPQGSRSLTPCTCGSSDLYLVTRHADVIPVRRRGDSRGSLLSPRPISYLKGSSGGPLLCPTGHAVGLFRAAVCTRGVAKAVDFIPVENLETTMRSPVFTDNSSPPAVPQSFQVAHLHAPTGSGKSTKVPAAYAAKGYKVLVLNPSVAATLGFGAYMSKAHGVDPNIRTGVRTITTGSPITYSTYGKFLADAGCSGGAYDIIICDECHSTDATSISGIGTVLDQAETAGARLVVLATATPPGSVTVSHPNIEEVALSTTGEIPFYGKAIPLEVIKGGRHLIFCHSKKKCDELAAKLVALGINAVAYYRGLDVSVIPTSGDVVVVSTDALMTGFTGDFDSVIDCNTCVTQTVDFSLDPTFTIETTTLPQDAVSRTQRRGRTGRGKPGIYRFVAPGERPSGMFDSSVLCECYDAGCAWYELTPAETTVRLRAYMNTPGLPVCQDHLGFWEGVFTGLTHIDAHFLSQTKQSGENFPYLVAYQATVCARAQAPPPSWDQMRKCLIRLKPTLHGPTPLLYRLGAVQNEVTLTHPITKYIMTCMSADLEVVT

Row | Compound | EC50 ([1]; Hepatitis C virus, Huh-7, Table 26, read-out: EC50) [µM] | IC50 [2] [µM] | EC50 ([1]; GS4.3 cells, 72 h, read-out: Replicon EC50) [µM]
1 | O=C(CCC(F)(F)F)N[C@H]1CCCCC/C=C\[C@@H]2C[C@@]2(C(=O)NS(=O)(=O)C2CC2)NC(=O)[C@@H]2CCCN2C1=O [Compound 2139] | < 1 | > 10 | 
2 | (2R,6S,13aS,14aR,16aS,Z)-6-(tert-butoxycarbonylamino)-9,9-difluoro-2-(4-fluoroisoindoline-2-carbonyloxy)-5,16-dioxo-1,2,3,5,6,7,8,9,10,11,13 a,14,14a,15,16,16a-hexadecahydrocyclopropa(e)prrolo[1,2-a][1,4]diazacyclopentadecine-14a-carboxylic acid [Compound 1006] |  | < 0.1 | < 10
